Test results taken from article PMC9516332 (Frontiers in Oncology, 2022).
Read-outs that look alike come from different tables or passages of the source.

Tested on: 134 cancer cell lines
Assay: Cell viability assay (ATPlite, 72 hours), IC50 on cancer cell line panel

## C[C@H](Nc1ncnc2nc[nH]c12)c1cc2cccc(Cl)c2c(=O)n1-c1ccccc1 [duvelisib]
Homo sapiens, MOLM-13, read-out: IC50 in cell proliferation assay, MOLM-13 cell line (FLT3 ITD)
  IC50: 0.004 µM
Homo sapiens, MOLT-4, read-out: IC50 in cell proliferation assay, MOLT-4 cell line
  IC50: 5.92 µM
Homo sapiens, MV4-11, read-out: IC50 in cell proliferation assay, MV4-11 cell line (FLT3 ITD)
  IC50: 0.014 µM
Homo sapiens, MeWo, read-out: IC50 in cell proliferation assay, MeWo cell line
  IC50: 28.1 µM
Homo sapiens, NCCIT, read-out: IC50 in cell proliferation assay, NCC-IT cell line
  IC50: 10.6 µM
Homo sapiens, NCI-H82, read-out: IC50 in cell proliferation assay, cell line NCI-H82
  IC50: > 31.6 µM
Homo sapiens, NCI-H460, read-out: IC50 in cell proliferation assay, NCI-H460 cell line
  IC50: 11.1 µM
Homo sapiens, NCI-H661, read-out: IC50 in cell proliferation assay, NCI-H661 cell line
  IC50: 3.22 µM
Homo sapiens, NCI-H716, read-out: IC50 in cell proliferation assay, cell line NCI-H716 (FGFR2-COL14A1)
  IC50: 5.31 µM
Homo sapiens, NCI-H1650, read-out: IC50 in cell proliferation assay, NCI-H1650 cell line (EGFR exon19del)
  IC50: 11 µM
Homo sapiens, NCI-H1975, read-out: IC50 in cell proliferation assay, NCI-H1975 cell line (EGFR p.L858R + p.T790M)
  IC50: 7.77 µM
Homo sapiens, NCI-H2228, read-out: IC50 in cell proliferation assay, NCI-H2228 cell line (EML4-ALK)
  IC50: 13.8 µM
Homo sapiens, OVCAR-3, read-out: IC50 in cell proliferation assay, cell line OVCAR-3
  IC50: 0.617 µM
Homo sapiens, PFSK-1, read-out: IC50 in cell proliferation assay, cell line PFSK-1
  IC50: 13.1 µM
Homo sapiens, RL95-2, read-out: IC50 in cell proliferation assay, cell line RL95-2 (EGFR p.A289V)
  IC50: 3.6 µM
Homo sapiens, RPMI-7951, read-out: IC50 in cell proliferation assay, cell line RPMI-7951 (BRAF p.V600E)
  IC50: 2.81 µM
Homo sapiens, RS4-11, read-out: IC50 in cell proliferation assay, cell line RS4;11
  IC50: 9.2 µM
Homo sapiens, Rec1, read-out: IC50 in cell proliferation assay, cell line REC-1
  IC50: 14.4 µM
Homo sapiens, SHP77, read-out: IC50 in cell proliferation assay, cell line SHP-77
  IC50: > 31.6 µM
Homo sapiens, SK-BR-3, read-out: IC50 in cell proliferation assay, cell line SK-BR-3 (ERBB2 amplification)
  IC50: 2.33 µM
Homo sapiens, SK-N-AS, read-out: IC50 in cell proliferation assay, cell line SK-N-AS
  IC50: > 31.6 µM
Homo sapiens, SK-N-FI, read-out: IC50 in cell proliferation assay, cell line SK-N-FI
  IC50: > 31.6 µM
Homo sapiens, SK-N-MC, read-out: IC50 in cell proliferation assay, cell line SK-N-MC
  IC50: 12.2 µM
Homo sapiens, SK-N-SH, read-out: IC50 in cell proliferation assay, cell line SK-N-SH (ALK p.F1174L)
  IC50: 12.6 µM
Homo sapiens, SNU-5, read-out: IC50 in cell proliferation assay, cell line SNU-5 (MET amplification)
  IC50: 11.2 µM
Homo sapiens, SNU-16, read-out: IC50 in cell proliferation assay, cell line SNU-16 (FGFR2 amplification)
  IC50: > 31.6 µM
Homo sapiens, SNU-C2B, read-out: IC50 in cell proliferation assay, cell line SNU-C2B (EGFR p.R165Q)
  IC50: 9.36 µM
Homo sapiens, SU-DHL-1, read-out: IC50 in cell proliferation assay, cell line SU-DHL-1 (NPM1-ALK)
  IC50: 22.6 µM
Homo sapiens, SU-DHL-6, read-out: IC50 in cell proliferation assay, cell line SU-DHL-6
  IC50: 0.00177 µM
Homo sapiens, SUP-T1, read-out: IC50 in cell proliferation assay, cell line SUP-T1
  IC50: 29.3 µM
Homo sapiens, SW48, read-out: IC50 in cell proliferation assay, cell line SW48 (EGFR p.G719S)
  IC50: 5.94 µM
Homo sapiens, SW480, read-out: IC50 in cell proliferation assay, cell line SW480
  IC50: 30.5 µM
Homo sapiens, SW626, read-out: IC50 in cell proliferation assay, cell line SW626
  IC50: 24.9 µM
Homo sapiens, SW780, read-out: IC50 in cell proliferation assay, cell line SW780 (FGFR3-BAIAP2L1)
  IC50: > 31.6 µM
Homo sapiens, SW837, read-out: IC50 in cell proliferation assay, cell line SW837
  IC50: 25.9 µM
Homo sapiens, SW872, read-out: IC50 in cell proliferation assay, cell line SW872 (BRAF p.V600E)
  IC50: 23.7 µM
Homo sapiens, SW900, read-out: IC50 in cell proliferation assay, cell line SW900
  IC50: 7.57 µM
Homo sapiens, SW948, read-out: IC50 in cell proliferation assay, cell line SW948
  IC50: 12.7 µM
Homo sapiens, SW982, read-out: IC50 in cell proliferation assay, cell line SW982 (BRAF p.V600E)
  IC50: 4.21 µM
Homo sapiens, SW-620, read-out: IC50 in cell proliferation assay, cell line SW620
  IC50: 20.1 µM
Homo sapiens, T98G, read-out: IC50 in cell proliferation assay, cell line T98G
  IC50: 4.8 µM
Homo sapiens, TCC-SUP, read-out: IC50 in cell proliferation assay, cell line TCCSUP
  IC50: 21.6 µM
Homo sapiens, THP-1, read-out: IC50 in cell proliferation assay, cell line THP-1
  IC50: 0.15 µM
Homo sapiens, U2OS, read-out: IC50 in cell proliferation assay, cell line U2OS
  IC50: 8.82 µM
Homo sapiens, U-87 MG, read-out: IC50 in cell proliferation assay, cell line U-87MG ATCC
  IC50: 10.5 µM
Homo sapiens, U-118-MG, read-out: IC50 in cell proliferation assay, cell line U-118MG
  IC50: > 31.6 µM
Homo sapiens, UMUC3, read-out: IC50 in cell proliferation assay, cell line UM-UC-3
  IC50: 25.3 µM
Hs766T, read-out: IC50 in cell proliferation assay, Hs 766T cell line
  IC50: 18.6 µM
L-82, read-out: IC50 in cell proliferation assay, L-82 cell line (NPM1-ALK)
  IC50: 22.1 µM
Rh30, read-out: IC50 in cell proliferation assay, cell line Rh30
  IC50: 12.2 µM
read-out: IC50 in cell proliferation assay, 11-18 cell line (EGFR p.L858R)
  IC50: 12.9 µM
read-out: IC50 in cell proliferation assay, Hs 852.T cell line
  IC50: 21.4 µM
read-out: IC50 in cell proliferation assay, JAR cell line
  IC50: 0.234 µM
read-out: IC50 in cell proliferation assay, cell line 5637
  IC50: 28 µM
read-out: IC50 in cell proliferation assay, cell line A-388
  IC50: 12.4 µM
read-out: IC50 in cell proliferation assay, cell line DB
  IC50: > 31.6 µM
read-out: IC50 in cell proliferation assay, cell line DEL (NPM1-ALK)
  IC50: > 31.6 µM
read-out: IC50 in cell proliferation assay, cell line ES-2 (BRAF p.V600E)
  IC50: > 31.6 µM
read-out: IC50 in cell proliferation assay, cell line PA-1
  IC50: 10.7 µM
read-out: IC50 in cell proliferation assay, cell line PC-3
  IC50: 5.81 µM
read-out: IC50 in cell proliferation assay, cell line RD
  IC50: 27.6 µM
read-out: IC50 in cell proliferation assay, cell line RKO (BRAF p.V600E)
  IC50: 8.82 µM
read-out: IC50 in cell proliferation assay, cell line RL
  IC50: 24 µM
read-out: IC50 in cell proliferation assay, cell line RT-4 (FGFR3-TACC3)
  IC50: 9.68 µM
read-out: IC50 in cell proliferation assay, cell line SR (NPM1-ALK)
  IC50: 14.1 µM
read-out: IC50 in cell proliferation assay, cell line T24
  IC50: 31.2 µM
read-out: IC50 in cell proliferation assay, cell line TT (RET p.C634W)
  IC50: > 31.6 µM
read-out: IC50 in cell proliferation assay, cell line VA-ES-BJ
  IC50: 2.94 µM
